IC50 data for three compounds are collected here from ChEMBL document CHEMBL3046384, “Pharmacophore modeling and structure-based virtual screening for a novel switch region target of bacterial RNA polymerase” (Med Chem Res, 2012).

Each structure is given as a SMILES string. pIC50: −log10 of the molar value.

A short description of this assay: Inhibition of RNA polymerase of Bacteria.
As to `C/C(=C\Cc1ccccc1)CCC(=O)C[C@H]1C[C@H](O)C/C(C)=C/C/C=C/C/C(CC(=O)O)=C\C(=O)O1` [RIPOSTATIN], the negative-log IC50 (pIC50) (commonly −log10 of the IC50, conventionally taken in molar units) was 6.10.
`CCC/C(C)=C/C=C(\C)C(=O)c1c(O)cc([C@H](C)CC/C=C/NC(=O)OC)oc1=O` [MYXOPORIN A] had a negative logarithm of the IC50 (pIC50) of 6.00.
`C/C=C/C/C=C(\C)C(O)CC/C(C)=C/C=C(\C)C(=O)c1c(O)cc([C@H](C)CC/C=C/NC(=O)OC)oc1=O` (stereo partly drawn) [CORALLOPYRONIN A] showed a negative logarithm of the IC50 (pIC50) of 5.40.
